{"source": "ChEMBL document CHEMBL3400087", "about": "“Modulating Acinetobacter baumannii biofilm development with molecules containing 3,4,5-trimethoxy-N,N',N'-trimethylbenzohydrazide moiety” (Bioorg Med Chem Lett, 2015)", "key": {"RAW264.7": {"system": "RAW264.7", "assay": "Cytotoxicity against mouse RAW264.7 cells assessed as reduction in cell viability at >200 uM after 24 hrs by trypan blue-staining based microscopic analysis", "details": "raw264.7, 24 h"}, "Acinetobacter baumannii [1]": {"system": "Acinetobacter baumannii", "assay": "Inhibition of Acinetobacter baumannii AB5711 biofilm formation at 100 uM after 24 hrs by crystal violet staining-based static MBEC biofilm assay", "assay_type": "functional, organism-based"}, "Acinetobacter baumannii [2]": {"system": "Acinetobacter baumannii", "assay": "Inhibition of Acinetobacter baumannii AB5711 biofilm formation in 14-French silicone urethral catheter at 200 uM measured after overnight incubation by crystal violet staining-based spectrophotometry", "assay_type": "functional, organism-based"}, "Acinetobacter baumannii [3]": {"system": "Acinetobacter baumannii", "assay": "Inhibition of Acinetobacter baumannii AB5711 biofilm formation at 200 uM after 24 hrs by crystal violet staining-based static MBEC biofilm assay", "assay_type": "functional, organism-based"}, "Acinetobacter baumannii [4]": {"system": "Acinetobacter baumannii", "assay": "Inhibition of Acinetobacter baumannii AB5711 biofilm formation assessed as inhibition of cell adherence to surface at 100 uM by crystal violet staining-based modified microtiter biofilm assay", "assay_type": "functional, organism-based"}}, "note": "Activity calls are given as the source filed them. The rule behind the calls is not given here."}
{"smiles": "CCNC(=S)NNC(=O)c1cc(OC)c(OC)c(OC)c1", "values": [{"measurement": "Activity", "setting": "RAW264.7", "value": "Toxic"}, {"measurement": "inhibition", "setting": "Acinetobacter baumannii [1]", "value": "inactive"}, {"measurement": "inhibition", "setting": "Acinetobacter baumannii [2]", "value": "Active"}, {"measurement": "inhibition", "setting": "Acinetobacter baumannii [3]", "value": "Active"}, {"measurement": "inhibition", "setting": "Acinetobacter baumannii [4]", "value": "Active"}]}
{"smiles": "NNC(=O)c1cc(O)c(O)c(O)c1", "values": [{"measurement": "Activity", "setting": "RAW264.7", "value": "Toxic"}, {"measurement": "inhibition", "setting": "Acinetobacter baumannii [1]", "value": "inactive"}, {"measurement": "inhibition", "setting": "Acinetobacter baumannii [2]", "value": "Active"}, {"measurement": "inhibition", "setting": "Acinetobacter baumannii [3]", "value": "Active"}, {"measurement": "inhibition", "setting": "Acinetobacter baumannii [4]", "value": "Active"}]}
{"smiles": "COc1cc(C(=O)NNC(=S)NC(C)(C)C)cc(OC)c1OC", "values": [{"measurement": "Activity", "setting": "RAW264.7", "value": "Toxic"}, {"measurement": "inhibition", "setting": "Acinetobacter baumannii [1]", "value": "inactive"}, {"measurement": "inhibition", "setting": "Acinetobacter baumannii [2]", "value": "Active"}, {"measurement": "inhibition", "setting": "Acinetobacter baumannii [3]", "value": "Active"}, {"measurement": "inhibition", "setting": "Acinetobacter baumannii [4]", "value": "Active"}]}
{"smiles": "COc1cc(C(=O)NNC(=O)c2cccc(Cl)c2)cc(OC)c1OC", "values": [{"measurement": "Activity", "setting": "RAW264.7", "value": "Toxic"}, {"measurement": "inhibition", "setting": "Acinetobacter baumannii [1]", "value": "inactive"}, {"measurement": "inhibition", "setting": "Acinetobacter baumannii [2]", "value": "Active"}, {"measurement": "inhibition", "setting": "Acinetobacter baumannii [3]", "value": "Active"}, {"measurement": "inhibition", "setting": "Acinetobacter baumannii [4]", "value": "Active"}]}
{"smiles": "COc1cc(C(=O)N2N=C(C3CC3)CC2(O)C(F)(F)F)cc(OC)c1OC", "note": "(stereo not given)", "values": [{"measurement": "Activity", "setting": "RAW264.7", "value": "Toxic"}, {"measurement": "inhibition", "setting": "Acinetobacter baumannii [1]", "value": "inactive"}, {"measurement": "inhibition", "setting": "Acinetobacter baumannii [2]", "value": "Active"}, {"measurement": "inhibition", "setting": "Acinetobacter baumannii [3]", "value": "Active"}, {"measurement": "inhibition", "setting": "Acinetobacter baumannii [4]", "value": "Active"}]}
{"smiles": "COc1ccccc1C(=O)NNC(=O)c1cc(OC)c(OC)c(OC)c1", "values": [{"measurement": "Activity", "setting": "RAW264.7", "value": "Toxic"}, {"measurement": "inhibition", "setting": "Acinetobacter baumannii [1]", "value": "inactive"}, {"measurement": "inhibition", "setting": "Acinetobacter baumannii [2]", "value": "inactive"}, {"measurement": "inhibition", "setting": "Acinetobacter baumannii [3]", "value": "Active"}, {"measurement": "inhibition", "setting": "Acinetobacter baumannii [4]", "value": "Active"}]}
{"smiles": "COc1cc(C(=O)NN2c3ccccc3C(C)(C)C(C)(C)c3ccccc32)cc(OC)c1OC", "values": [{"measurement": "Activity", "setting": "RAW264.7", "value": "Toxic"}, {"measurement": "inhibition", "setting": "Acinetobacter baumannii [1]", "value": "inactive"}, {"measurement": "inhibition", "setting": "Acinetobacter baumannii [2]", "value": "Active"}, {"measurement": "inhibition", "setting": "Acinetobacter baumannii [3]", "value": "Active"}, {"measurement": "inhibition", "setting": "Acinetobacter baumannii [4]", "value": "Active"}]}
{"smiles": "COc1cc(C(=O)NNC(=O)c2ccc(S(=O)(=O)C3CCC(C)CC3)cc2)cc(OC)c1OC", "note": "(stereo not given)", "values": [{"measurement": "Activity", "setting": "RAW264.7", "value": "Toxic"}, {"measurement": "inhibition", "setting": "Acinetobacter baumannii [1]", "value": "inactive"}, {"measurement": "inhibition", "setting": "Acinetobacter baumannii [2]", "value": "inactive"}, {"measurement": "inhibition", "setting": "Acinetobacter baumannii [3]", "value": "Active"}, {"measurement": "inhibition", "setting": "Acinetobacter baumannii [4]", "value": "Active"}]}
